Reference: article PMC6582257, “Inhibition of Escherichia coli and Bacillus subtilis FtsZ Polymerization and Bacillus subtilis Growth by Dihydroxynaphtyl Aryl Ketones” (Frontiers in Microbiology, 2019)
“And” between values parts separate entries of the source, which are not always exact repeats. Identical values can stand only once. Like-named read-outs stand apart in the source and are kept apart here.

Columns and labels:
EcFtsZ [1] = molecular target: T1, EcFtsZ (Escherichia coli, UniProt P0A9A6); test: GTP induced EcFtsZ polymerization by light scattering (PK/PEP GTP regeneration system); assay type: biochemical
T1 construct: made in house; host or cells: E. coli BL21 (DE3)
T1 sequence (P0A9A6 whole entry): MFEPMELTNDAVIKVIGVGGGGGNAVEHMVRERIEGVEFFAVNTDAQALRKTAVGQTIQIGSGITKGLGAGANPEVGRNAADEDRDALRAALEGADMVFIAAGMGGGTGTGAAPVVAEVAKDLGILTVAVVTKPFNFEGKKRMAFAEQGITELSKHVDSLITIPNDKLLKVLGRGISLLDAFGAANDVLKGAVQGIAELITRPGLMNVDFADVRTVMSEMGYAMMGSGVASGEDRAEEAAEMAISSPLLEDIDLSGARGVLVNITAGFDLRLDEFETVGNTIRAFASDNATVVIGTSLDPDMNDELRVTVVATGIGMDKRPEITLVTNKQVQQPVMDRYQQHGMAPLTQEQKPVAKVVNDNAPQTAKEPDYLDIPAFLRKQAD
Method: (§1) Polymerization of FtsZ was determined by light scattering. Light scattering was measured on a Perkin Elmer LS 50 spectrofluorimeter, illuminating with light at a wavelength of 350 nm (excitation) and recording at the same wavelength (emission). Excitation and emission bandwidth were 7 nm and a 4% transmittance filter was used in the emission path. Temperature was kept constant at 30°C.
(§2) Polymerization of FtsZ induced by GTP [with GTP regeneration system PK/PEP (Margalit et al., [2004])] was measured in the absence and the presence of dNAK 4. 12.5 μM FtsZ was pre-incubated in 50 mM HEPES pH 7.3, 50 mM KCl, 10 mM MgCl2, 1% DMSO, and 1 mM PEP. The reaction was started by adding the compound (at the concentration indicated in the figures), 4 units of PK and 1 mM GTP. For each polymerization reaction, a baseline was registered, which corresponds to the light scattering after adding the compound and prior to the induction of polymerization by the addition of GTP and PK.

Proteus mirabilis BEM87 = test: Growth inhibition halos on bacterial lawns; assay type: cell-based; design: key to growth inhibition halo: −: Absence (-) or presence (+) of growth inhibition halos on different bacterial lawns; Absence (-) or presence (+) of growth inhibition halos on different bacterial lawns; conditions: for growth inhibition halo: 5 µl, 37°C 5-6 h
Method: (§3) TABLE SM1. Effect of dNAK 4 tested directly on the growth of different bacterial […]
(§4) Strains Amount of dNAK 4 in DMSO 30% […]
(§5) Absence (-) or presence (+) of growth inhibition halos on different bacterial lawns.
(§6) The bacterial lawns for each strain listed in this Table were prepared as follow:
(§7) Bacterial cells were grown in Müller-Hinton (MH) media until an OD600 = 0.3. 300 µl of each culture was mixed with 5 ml of MH soft agar and poured into a plate containing 20 ml of MH hard agar. Once cooled, 5 µl of dNAK 4 dissolved in DMSO […]
(§8) the top agar and incubated at 37°C during 5-6 h until growth inhibition halos were […]
(§9) growth inhibition halos in any of the strains tested. As positive control the antibiotic minocycline was used. The experiments were performed by triplicate. The bacterial strains used in these experiments belong to our laboratory collection.

Escherichia coli K12 = test: Growth inhibition halos on bacterial lawns; assay type: cell-based; design: key to growth inhibition halo: −: Absence (-) or presence (+) of growth inhibition halos on different bacterial lawns; Absence (-) or presence (+) of growth inhibition halos on different bacterial lawns; conditions: for growth inhibition halo: 5 µl, 37°C 5-6 h
Method: as §3, §4, §5, §6, §7, §8, §9

[2] = system: Enterobacter aerogenes BEM27; test: Growth inhibition halos on bacterial lawns; assay type: cell-based; design: key to growth inhibition halo: −: Absence (-) or presence (+) of growth inhibition halos on different bacterial lawns; Absence (-) or presence (+) of growth inhibition halos on different bacterial lawns; conditions: for growth inhibition halo: 5 µl, 37°C 5-6 h
Method: as §3, §4, §5, §6, §7, §8, §9

Bacillus subtilis BEM54 = test: Growth inhibition halos on bacterial lawns; assay type: cell-based; design: key to growth inhibition halo: −: Absence (-) or presence (+) of growth inhibition halos on different bacterial lawns; Absence (-) or presence (+) of growth inhibition halos on different bacterial lawns; conditions: for growth inhibition halo: 5 µl, 37°C 5-6 h
Method: as §3, §4, §5, §6, §7, §8, §9

[3] = system: Pseudomonas aeruginosa BEM12; test: Growth inhibition halos on bacterial lawns; assay type: cell-based; design: key to growth inhibition halo: −: Absence (-) or presence (+) of growth inhibition halos on different bacterial lawns; Absence (-) or presence (+) of growth inhibition halos on different bacterial lawns; conditions: for growth inhibition halo: 5 µl, 37°C 5-6 h
Method: as §3, §4, §5, §6, §7, §8, §9

EcFtsZ [4] = molecular target: T1, EcFtsZ; test: GDP induced EcFtsZ polymerization by light scattering; assay type: biochemical; conditions: 32 μM compound, 2 mM GDP, 12.5 μM protein
Method: as §1
(§10) Polymerization of FtsZ induced by GDP was measured in the absence and the presence of dNAK 4. 12.5 μM FtsZ was pre-incubated in 50 mM HEPES pH 7.3, 50 mM KCl, 10 mM MgCl2, 1% DMSO, and 2 mM GDP. The reaction was started by adding the compound at 32 μM final concentration.

tubulin = molecular target: tubulin; design: method as in Gutiérrez et al., 2015; conditions: ref Gutiérrez et al., 2015; cited from earlier work
E. coli K12 = test: Growth curves in liquid Müller-Hinton culture, E. coli; assay type: cell-based, Escherichia coli; conditions: up to 32 μM, 37°C
Method: (§11) Cells were grown in liquid culture medium Müller Hinton (MH) in the presence and absence of the compound. MH medium was inoculated with an overnight culture of each strain and grown until an OD600 of 0.6 was reached. Both cultures were then diluted to OD600 of 0.1 and subsequently divided into several cultures, where the controls (without the compound and with DMSO) and different concentrations of dNAK 4 were tested. Each experimental condition was assayed in 250 μL, six times, in a 96-well ELISA plate. The cultures were grown under agitation at 37°C in a plate spectrofluorimeter with absorbance module model TECAN Infinite M200 PRO and the OD600 was automatically registered every 15 min for 24 h.

B. subtilis [5] = test: Live-cell imaging of cell division in CellASIC ONIX2 microfluidic chambers; assay type: cell-based, Bacillus subtilis; conditions: LB with 32 μM perfused 8 h, 37°C
BsFtsZ [6] = molecular target: T2, BsFtsZ (Bacillus subtilis, UniProt P17865); test: GDP induced BsFtsZ polymerization by light scattering; assay type: biochemical; conditions: 32 μM compound, 2 mM GDP, 12.5 μM protein
T2 construct: made in house; host or cells: E. coli DH10B
T2 sequence (P17865 whole entry): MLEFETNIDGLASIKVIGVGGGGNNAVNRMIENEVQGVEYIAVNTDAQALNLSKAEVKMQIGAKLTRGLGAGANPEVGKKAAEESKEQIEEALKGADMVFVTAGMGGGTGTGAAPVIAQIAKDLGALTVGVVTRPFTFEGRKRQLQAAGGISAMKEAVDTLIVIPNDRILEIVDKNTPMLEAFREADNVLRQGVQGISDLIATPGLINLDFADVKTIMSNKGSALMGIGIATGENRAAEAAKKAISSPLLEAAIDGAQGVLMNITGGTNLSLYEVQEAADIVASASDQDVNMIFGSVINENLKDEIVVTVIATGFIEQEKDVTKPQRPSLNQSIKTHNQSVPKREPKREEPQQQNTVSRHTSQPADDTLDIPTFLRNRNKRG
Method: as §1, §10

E. coli = test: Live-cell imaging of cell division in CellASIC ONIX2 microfluidic chambers; assay type: cell-based, Escherichia coli; conditions: LB with 32 μM perfused 8 h, 37°C
Method: In order to evaluate the effect of dNAK 4 at a cellular level, we designed a live-cell imaging approach using the microfluidics platform CellASIC ONIX2 (Merck) coupled to a Lionheart FX automated microscope (BioTek). This setup allowed us to directly monitor the division of E. coli and B. subtilis cells inside microchambers, under a precisely controlled temperature (37°C) and the continuous perfusion of fresh culture medium. The microscope was set up to take one picture of each chamber every 10 min during the whole experiment (20 h), in order to get a continuous view of the division process occurring in a group of cells and its response to the perfusion of dNAK 4. First, cells of each strain were inoculated into separate microchambers, perfusing LB medium for 4 h while monitoring cell growth. Afterwards, LB supplemented with 32 μM dNAK 4 was perfused during the next 8 h. Finally, LB medium without dNAK 4 was perfused during the last 8 h in order to monitor the effect of washing the compound. […] After washing the compound, some B. subtilis cells seemed to partially recover the ability to divide.
2. Live-cell imaging of E. coli and B. subtilis cell division while grown in microfluidic chambers, in the presence or absence of dNAK 4. […]

BsFtsZ [7] = molecular target: T2, BsFtsZ; test: GTP induced BsFtsZ polymerization by light scattering (PK/PEP GTP regeneration system); assay type: biochemical
Method: as §1, §2

[8] = system: Staphylococcus aureus BEM42; test: Growth inhibition halos on bacterial lawns; assay type: cell-based; design: key: −: Absence (-) or presence (+) of growth inhibition halos on different bacterial lawns; Absence (-) or presence (+) of growth inhibition halos on different bacterial lawns; conditions: 5 µl, 37°C 5-6 h
Method: as §3, §4, §5, §6, §7, §8, §9

normal and cancer cell = system: normal and cancer cell; design: method as in Benites et al., 2016; conditions: ref Benites et al., 2016; cited from earlier work
B. subtilis [9] = test: Growth curves in liquid Müller-Hinton culture, B. subtilis; assay type: cell-based, Bacillus subtilis; conditions: for effective concentration (total growth arrest): liquid culture
Method: as §11

[10] = calculated from the EcFtsZ polymerization inhibition by the compounds, read-out: IFP (inhibition of EcFtsZ polymerization) expressed as IC50
[11] = at the concentration tested (0.05-2 µg)

For O=C(c1cccs1)c1cc(O)c2ccccc2c1O [dNAK 1], the IC50 (EcFtsZ [1]; [10]) was 100 µM.
With O=C(c1ccsc1)c1cc(O)c2ccccc2c1O [dNAK 2] the IC50 (EcFtsZ [1]; [10]) was 44 µM.
For O=C(c1ccco1)c1cc(O)c2ccccc2c1O [dNAK 3], the IC50 (EcFtsZ [1]; [10]) was 39 µM.
For O=C(c1ccc[nH]1)c1cc(O)c2ccccc2c1O [dNAK 4, (1,4-dihydroxy-naphthalen-2-yl)-(1H-pyrrol-2-yl)-methanone], the growth inhibition halo (Proteus mirabilis BEM87; 0.05 µg in DMSO 30%) was “−”, the growth inhibition halo (Proteus mirabilis BEM87; 0.1 µg in DMSO 30%) was “−” and the growth inhibition halo (Proteus mirabilis BEM87; 0.3 µg in DMSO 30%) was “−”. For the same compound, the growth inhibition halo (Proteus mirabilis BEM87; 0.5 µg in DMSO 30%) was “+”, the growth inhibition halo (Proteus mirabilis BEM87; 1 µg in DMSO 30%) was “+” and the growth inhibition halo (Proteus mirabilis BEM87; 2 µg in DMSO 30%) was “+”. The “amount giving growth inhibition in plate assays” value (Proteus mirabilis BEM87; bacterial lawn, P. mirabilis) was 0.3 to 0.5 µg, the growth inhibition halo (Escherichia coli K12; 0.05 µg in DMSO 30%) was “−” and the growth inhibition halo (Escherichia coli K12; 0.1 µg in DMSO 30%) was “−”. For the same compound, the growth inhibition halo (Escherichia coli K12; 0.3 µg in DMSO 30%) was “−”, the growth inhibition halo (Escherichia coli K12; 0.5 µg in DMSO 30%) was “−” and the growth inhibition halo (Escherichia coli K12; 1 µg in DMSO 30%) was “−”. The growth inhibition halo (Escherichia coli K12; 2 µg in DMSO 30%) was “−”, the “inhibitory effect in plate assays” value (Escherichia coli K12; [11]) was “no inhibitory effect” and the growth inhibition halo ([2]; 0.05 µg in DMSO 30%) was “−”. For the same compound, the growth inhibition halo ([2]; 0.1 µg in DMSO 30%) was “−”, the growth inhibition halo ([2]; 0.3 µg in DMSO 30%) was “−” and the growth inhibition halo ([2]; 0.5 µg in DMSO 30%) was “−”. For the same compound, the growth inhibition halo ([2]; 1 µg in DMSO 30%) was “−”, the growth inhibition halo ([2]; 2 µg in DMSO 30%) was “−” and the “inhibitory effect in plate assays” value [2, 11] was “no inhibitory effect”. The growth inhibition halo (Bacillus subtilis BEM54; 0.05 µg in DMSO 30%) was “−”, the growth inhibition halo (Bacillus subtilis BEM54; 0.1 µg in DMSO 30%) was “+” and the growth inhibition halo (Bacillus subtilis BEM54; 0.3 µg in DMSO 30%) was “+”. For the same compound, the growth inhibition halo (Bacillus subtilis BEM54; 0.5 µg in DMSO 30%) was “+”, the growth inhibition halo (Bacillus subtilis BEM54; 1 µg in DMSO 30%) was “+” and the growth inhibition halo (Bacillus subtilis BEM54; 2 µg in DMSO 30%) was “+”. The “lowest amount giving growth inhibition in plate assays” value (Bacillus subtilis BEM54; bacterial lawn, B. subtilis) was 0.1 µg, the growth inhibition halo ([3]; 0.05 µg in DMSO 30%) was “−” and the growth inhibition halo ([3]; 0.1 µg in DMSO 30%) was “−”. The growth inhibition halo ([3]; 0.3 µg in DMSO 30%) was “+”, the growth inhibition halo ([3]; 0.5 µg in DMSO 30%) was “+” and the growth inhibition halo ([3]; 1 µg in DMSO 30%) was “+”. For the same compound, the growth inhibition halo ([3]; 2 µg in DMSO 30%) was “+”, the “amount giving growth inhibition in plate assays” value ([3]; bacterial lawn, P. aeruginosa) was 0.3 to 0.5 µg and the “polymerization of EcFtsZ with GDP” value (EcFtsZ [4]) was “induced”. The Kd (tubulin) was 1.02 ± 0.23 µM, the “effect on E. coli K12 growth in liquid culture” value (E. coli K12) was “no inhibitory effect” and the “effect on growth of B. subtilis cells” value (B. subtilis [5]) was “complete growth arrest”. The “polymerization of BsFtsZ with GDP” value (BsFtsZ [6]) was “induced”, the “effect on growth of E. coli cells” value (E. coli) was “no effect” and the IC50 (BsFtsZ [7]) was 9.13 ± 0.66 µM. The growth inhibition halo ([8]; 0.05 µg in DMSO 30%) was “−”, the growth inhibition halo ([8]; 0.1 µg in DMSO 30%) was “+” and the growth inhibition halo ([8]; 0.3 µg in DMSO 30%) was “+”. For the same compound, the growth inhibition halo ([8]; 0.5 µg in DMSO 30%) was “+”, the growth inhibition halo ([8]; 1 µg in DMSO 30%) was “+” and the growth inhibition halo ([8]; 2 µg in DMSO 30%) was “+”. For the same compound, the “effect on normal and cancer cell proliferation” value (normal and cancer cell) was “no effect”, the IC50 (EcFtsZ [1]; from slope of light scattering increment after depolymerization vs concentration, PK/PEP GTP regeneration system, read-out: IFP expressed as IC50 (converted)) was 2.3 ± 0.1 µM and the IC50 (EcFtsZ [1]; from steady-state slope of light scattering increment vs concentration, PK/PEP GTP regeneration system, read-out: IFP expressed as IC50 (converted)) was 4.6 µM and 4.4 µM. For the same compound, the “B. subtilis growth in liquid culture” value (B. subtilis [9]; 32 μM, during 16 h, Müller-Hinton, 37°C) was “no growth”, the “effective concentration (total growth arrest)” value (B. subtilis [9]) was 32 µM and the “effective concentration (total growth arrest)” value (B. subtilis [9]; conversion of 32 μM) was 8 µg/mL.
With COc1cc(C(=O)c2cc(O)c3ccccc3c2O)cc(OC)c1OC [dNAK 5] the IC50 (EcFtsZ [1]; [10]) was 81.5 µM.
For O=C(c1ccc[nH]1)c1cc(O)ccc1O [dPAK 4, (2,5-dihydroxy-phenyl)-(1H-pyrrol-2-yl)-methanone], the “inhibitory effect over BsFtsZ polymerization” value (BsFtsZ [7]; 2-64 µM, 1% DMSO) was “no inhibitory effect” and the “inhibitory effect over EcFtsZ polymerization” value (EcFtsZ [1]; 2-64 µM, 1% DMSO) was “no inhibitory effect”.
